The test system of this data set is heart muscle. Briefly: Assay Method 4: rat screening toxicity protocol. Format: in vivo. To be noted: 300 mg/kg daily oral, up to 4 days, male rats. The procedure:
Rat Screening Toxicity Protocol
Male Crl:CD® (SD) rats approximately 8 weeks of age and weighing approximately 200 to 350 grams at initiation of dosing, were supplied by Charles River Laboratories, Hollister, Calif. Rats were individually housed in solid bottom plastic cages with 0.25 inch Cobb Bedding. Study rooms were maintained on a 12-hour light/dark cycle, with a temperature range of 64 to 79° F., and a relative humidity range of 30 to 70%. Rats were fed ad libitum (except where noted) with Rodent Diet 5008 supplied by PMI® Nutrition International, Richmond, Ind. Water was provided ad libitum by an automatic watering system and/or water bottles. The animals were quarantined for at least 5 days (prior to treatment period). Rats were selected on the basis of predose evaluations and randomly assigned to groups using a computer-generated randomization method based on body weight.
A vehicle treated group was dosed to match the highest dose volume (mL/kg) used. The test compound was administered orally daily. Test compounds were stored at room temperature. 4-({3-[(4-chlorophenyl)oxy]phenyl}methyl)-N-pyridin-3-ylpiperazine-1-carboxamide was dosed in solution using 20% cyclodextrin as the vehicle. N-pyridin-3-yl-4-{3-[4-(trifluoromethyl)phenoxy]benzyl}piperazine-1-carboxamide bis-hydrochloride dihydrate was dosed in solution using water as the vehicle. Rats in the vehicle treated and test article treated were dosed for up to 4 days. Mortality checks were performed at least once a day on all animals pre-dose and post-dose. Clinical observations were performed at least once during the pre-dose period. Clinical observations were recorded prior to dosing, at least once after daily dosing, and prior to scheduled necropsy for animals assessed for toxicology. Body Weights were determined at least once during the pre-dose period, prior to the first dose, once during dose administration and once after the last dose, and once prior to necropsy for tissue body weight ratios. […] Observations were recorded at necropsy and tissue trimming. […] Clinical pathology was not determined on these animals. […]

The structures appear in SMILES notation. Structures can show the parent of a compound that is named as a salt.

Turning to `O=C(Nc1cccnc1)N1CCN(Cc2cccc(Oc3ccc(Cl)cc3)c2)CC1` [4-({3-[(4-Chlorophenyl)oxy]phenyl}methyl)-N-pyridin-3-ylpiperazine-1-carboxamide], the “lesions in heart muscle” value is listed as “developed lesions in heart muscle”. As to `O=C(Nc1cccnc1)N1CCN(Cc2cccc(Oc3ccc(C(F)(F)F)cc3)c2)CC1` [Example 1, N-Pyridin-3-yl-4-{3-[4-(trifluoromethyl)phenoxy]benzyl}piperazine-1-carboxamide, bis-hydrochloride dihydrate], the “lesions in heart muscle” value reads like this: (listed as N-pyridin-3-yl-4-{3-[4-(trifluoromethyl)phenoxy]benzyl}piperazine-1-carboxamide , bis-hydrochloride dihydrate) “absent”; (listed as N-pyridin-3-yl-4-{3-[4-(trifluoromethyl)phenoxy]benzyl}piperazine-1-carboxamide, bis-hydrochloride dihydrate) “lacked such lesions”.
